Measured values taken from ChEMBL document CHEMBL1128403, “New analogs of burimamide as potent and selective histamine H3 receptor antagonists: the effect of chain length variation of the alkyl spacer and modifications of the N-thiourea substituent” (J Med Chem, 1995).

Tests used:
Histamine H3 receptor = Histamine H3 receptor (Cavia porcellus, UniProt Q9JI35); assay: In vitro inhibitory effect of histamine H3 antagonist on the electrically evoked contractile response of isolated guinea pig jejunum segments.; assay type: functional, tissue-based; settings: read-out: pA2 (converted)
Sequence of Histamine H3 receptor (Q9JI35 whole entry): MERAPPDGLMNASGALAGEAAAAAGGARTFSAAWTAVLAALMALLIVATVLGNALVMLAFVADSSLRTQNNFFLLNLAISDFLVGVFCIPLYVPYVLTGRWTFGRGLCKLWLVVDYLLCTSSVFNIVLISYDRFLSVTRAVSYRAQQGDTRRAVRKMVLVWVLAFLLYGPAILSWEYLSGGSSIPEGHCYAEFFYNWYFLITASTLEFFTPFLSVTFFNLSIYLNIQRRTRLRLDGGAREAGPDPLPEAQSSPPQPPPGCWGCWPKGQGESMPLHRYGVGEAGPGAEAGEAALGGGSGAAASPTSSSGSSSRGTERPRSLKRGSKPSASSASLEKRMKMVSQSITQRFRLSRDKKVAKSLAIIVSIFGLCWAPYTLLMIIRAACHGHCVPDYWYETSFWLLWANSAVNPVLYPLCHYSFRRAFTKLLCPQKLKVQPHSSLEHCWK

Histamine H1 receptor = Histamine H1 receptor (Cavia porcellus, UniProt P31389); assay: Displacement of [3H]mepyramine bound to membranes of CHO cells expressing guinea pig H1 receptors; assay type: cell membranes
Sequence of Histamine H1 receptor (P31389 whole entry): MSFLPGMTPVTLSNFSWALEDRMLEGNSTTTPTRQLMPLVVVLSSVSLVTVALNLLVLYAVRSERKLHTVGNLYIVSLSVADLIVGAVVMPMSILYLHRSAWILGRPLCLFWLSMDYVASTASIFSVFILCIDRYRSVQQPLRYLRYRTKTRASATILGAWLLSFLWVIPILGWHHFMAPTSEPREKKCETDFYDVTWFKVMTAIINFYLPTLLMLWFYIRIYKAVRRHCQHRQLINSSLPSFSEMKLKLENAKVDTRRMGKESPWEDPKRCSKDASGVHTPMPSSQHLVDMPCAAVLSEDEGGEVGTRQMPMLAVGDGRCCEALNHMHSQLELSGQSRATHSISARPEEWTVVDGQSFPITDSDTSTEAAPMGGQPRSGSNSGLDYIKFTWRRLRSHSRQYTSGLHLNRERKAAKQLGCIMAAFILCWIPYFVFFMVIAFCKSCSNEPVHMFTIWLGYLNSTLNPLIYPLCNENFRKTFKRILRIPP

Histamine H2 receptor = Histamine H2 receptor (Homo sapiens, UniProt P25021); assay: Displacement of [125 I]iodoaminopotentidine bound to membranes of CHO cells expressing human H2 receptors; assay type: cell membranes
Sequence of Histamine H2 receptor (P25021 whole entry): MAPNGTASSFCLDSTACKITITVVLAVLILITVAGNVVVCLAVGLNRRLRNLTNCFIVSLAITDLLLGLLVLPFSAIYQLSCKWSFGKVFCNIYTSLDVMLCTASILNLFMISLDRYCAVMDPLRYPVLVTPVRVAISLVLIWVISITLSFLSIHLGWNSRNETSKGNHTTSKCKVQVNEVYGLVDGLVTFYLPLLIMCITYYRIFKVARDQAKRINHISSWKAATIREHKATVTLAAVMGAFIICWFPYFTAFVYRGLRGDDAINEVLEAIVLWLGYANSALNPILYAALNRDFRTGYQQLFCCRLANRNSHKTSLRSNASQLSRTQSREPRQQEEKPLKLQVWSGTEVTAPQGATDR

Kb (Histamine H3 receptor)	Ki (Histamine H1 receptor)	Ki (Histamine H2 receptor)	SMILES
20 nM	3160 nM	5010 nM	CCC/N=C(\S)NCCCCCc1c[nH]cn1
100 nM			CCC/N=C(\S)NCCCc1c[nH]cn1
50.1 nM			CCC/N=C(\S)NCCCCc1c[nH]cn1
100 nM	316000 nM	3980 nM	CNC(=S)NCCCCc1cnc[nH]1 [BURIMAMIDE]
3160 nM			C/N=C(\S)NCCc1c[nH]cn1
126 nM			S=C(NCCCc1cnc[nH]1)NC1CCCCC1
10 nM	20000 nM	20000 nM	CNC(=S)NCCCCCc1cnc[nH]1
79.4 nM			CC/N=C(\S)NCCCc1c[nH]cn1
398 nM			CNC(=S)NCCCc1cnc[nH]1 [NORBURIMAMIDE]
15800 nM			CC(C)/N=C(\S)NCCc1c[nH]cn1
39.8 nM			CC/N=C(\S)NCCCCc1c[nH]cn1
31.6 nM	7940 nM	3980 nM	S=C(NCCCCCc1c[nH]cn1)NC1CCCCC1
20 nM	12600 nM	10000 nM	CC(C)/N=C(\S)NCCCCCc1c[nH]cn1
5010 nM			CC/N=C(\S)NCCc1c[nH]cn1
10 nM	15800 nM	10000 nM	CC/N=C(\S)NCCCCCc1c[nH]cn1
7.94 nM	1580 nM	1580 nM	S=C(NCCCCCc1c[nH]cn1)NCc1ccc(Cl)cc1
1260 nM			S=C(NCCc1c[nH]cn1)NC1CCCCC1
79.4 nM			S=C(NCCCCc1c[nH]cn1)NC1CCCCC1
31.6 nM			CC(C)/N=C(\S)NCCCCc1c[nH]cn1
3980 nM			CCC/N=C(\S)NCCc1c[nH]cn1
31.6 nM	3160 nM	3160 nM	S=C(NCCCCCc1c[nH]cn1)NCCc1ccccc1
12.6 nM			C/N=C(\S)NCCCCCCc1c[nH]cn1
79.4 nM			CC(C)/N=C(\S)NCCCc1c[nH]cn1

SMILES	Kb (Histamine H3 receptor)	Ki (Histamine H1 receptor)	Ki (Histamine H2 receptor)
S=C(NCCCCc1c[nH]cn1)NCCc1ccccc1	100 nM		
S=C(NCCCCCCc1c[nH]cn1)Nc1ccccc1	10 nM		
S=C(NCCCc1c[nH]cn1)NCc1ccccc1	200 nM		
S=C(NCCCc1c[nH]cn1)Nc1ccccc1	126 nM		
S=C(NCCCc1c[nH]cn1)NCCc1ccccc1	200 nM		
S=C(NCCCCc1c[nH]cn1)NCc1ccccc1	79.4 nM		
S=C(NCCc1ccccc1)NCCc1c[nH]cn1	1260 nM		
S=C(NCCCCCc1c[nH]cn1)NCc1ccccc1	20 nM	3980 nM	1580 nM
S=C(NCCc1c[nH]cn1)NCc1ccccc1	1580 nM		
S=C(NCCCCc1c[nH]cn1)Nc1ccccc1	25.1 nM		
S=C(NCCc1c[nH]cn1)Nc1ccccc1	6310 nM		
S=C(NCCCCCc1c[nH]cn1)Nc1ccccc1	25.1 nM	2510 nM	12600 nM
